According to ChEMBL document CHEMBL1129703, “Lipophilic bioisosteres of nucleoside triphosphates” (Bioorg Med Chem Lett, 1996):

Tests used:
[1] = system: C8166; experiment: Anti-HIV activity against HIV-1 infected C8166 cell lines; format: functional, cell-based, Human immunodeficiency virus 1
[2] = system: C8166; experiment: Cytotoxicity in C8166 cell lines; format: functional, Homo sapiens
[3] = system: CCRF-CEM; experiment: Concentration required to reduce cell viability of CEM/0 cells by 50%; format: functional; conditions: Homo sapiens
[4] = system: CCRF-CEM; experiment: Anti-HIV activity against HIV-1 infected CEM/0 cell lines.; format: functional, cell-based; conditions: Homo sapiens
[5] = system: CCRF-CEM; experiment: Anti-HIV activity against HIV-2 infected CEM/0 cell lines.; format: functional, cell-based; conditions: Homo sapiens
[6] = system: JM1; experiment: Concentration required to reduce cell viability of JM cells by 50%; format: functional, Homo sapiens
[7] = system: JM1; experiment: Anti-HIV activity against HIV-1 infected JM cell lines; format: functional, cell-based
[8] = target: Human immunodeficiency virus type 1 reverse transcriptase (Human immunodeficiency virus 1, UniProt Q72547); experiment: Inhibition of HIV-1 reverse transcriptase
[9] = system: CEM-TK(-); experiment: Anti-HIV activity against HIV-2 infected CEM/TK- cell lines.; conditions: Homo sapiens
[10] = system: C8166; experiment: Concentration of compound required to reduce cell viability of C8166 cells by 50%; format: functional; conditions: Homo sapiens
[11] = system: MT2; experiment: Concentration required to reduce cell viability of MT2 cells by 50%; format: functional; conditions: Homo sapiens
[12] = system: MT2; experiment: Anti-HIV activity against HIV-2 infected MT2 cell lines; format: functional, cell-based, Homo sapiens

Structure (SMILES)	EC50 ([1]; Homo sapiens, C8166) [µM]	EC50 [4] [µM]	EC50 [5] [µM]	EC50 ([7]; Homo sapiens, JM1) [µM]	IC50 [8] [µM]	EC50 [9] [µM]	EC50 ([12]; Homo sapiens, MT2) [µM]	EC50 ([1]; c8166) [µM]	EC50 ([7]; jm1) [µM]	EC50 ([12]; mt2) [µM]	CC50 ([2]; Homo sapiens, C8166) [µM]	CC50 [3] [µM]	CC50 ([6]; Homo sapiens, JM1) [µM]	CC50 [10] [µM]	CC50 [11] [µM]	CC50 [2] [µM]	CC50 [6] [µM]
Cc1cn([C@H]2C[C@H](O)[C@@H](COC(=O)C[C@@]3(C)C[C@@](C)(O)CO3)O2)c(=O)[nH]c1=O	> 1000			500			1000				> 1000		> 1000		> 1000		
Cc1cn([C@H]2C[C@H](O[Si](C)(C)C(C)(C)C)[C@@H](CO)O2)c(=O)[nH]c1=O	16			20							400		400				
CSCOC1(C)COC(C)(CC(=O)NC[C@@H]2C=C[C@H](n3cc(C)c(=O)[nH]c3=O)O2)C1 (some centres undefined)	400			500			200				> 1000		> 1000		> 1000		
CSCOC1(C)COC(C)(CC(=O)O)C1 (centres undefined)	> 1000	> 250	> 250	> 1000	> 100	> 250					> 1000	> 250	> 1000				
Cc1cn([C@H]2C[C@H](N=[N+]=[N-])[C@@H](COC(=O)CC3(C)CC(C)(O)CO3)O2)c(=O)[nH]c1=O (stereo in doubt; 13)								0.04	200							500	1000
Cc1cn([C@H]2C[C@H](O[Si](C)(C)C(C)(C)C)[C@@H](COC(=O)CC3(C)CC(C)(O)CO3)O2)c(=O)[nH]c1=O (stereo in doubt; form 1)	20			20			20				200		200		200		
Cc1cn([C@H]2C=C[C@@H](CNC(=O)CC3(C)CC(C)(O)CO3)O2)c(=O)[nH]c1=O (stereo in doubt; form 1)	500						500		200		> 500		> 500		> 500		
Cc1cn([C@H]2C[C@H](N=[N+]=[N-])[C@@H](COC(=O)CC3(C)CC(C)(O)CO3)O2)c(=O)[nH]c1=O (stereo in doubt; form 1)								0.064	100	0.064							> 1000
Cc1cn([C@H]2C[C@H](O[Si](C)(C)C(C)(C)C)[C@@H](COC(=O)CC3(C)CC(C)(O)CO3)O2)c(=O)[nH]c1=O (stereo in doubt; form 2)								10	10	10							
Cc1cn([C@H]2C=C[C@@H](CNC(=O)CC3(C)CC(C)(O)CO3)O2)c(=O)[nH]c1=O (stereo in doubt; form 2)								> 500	500	> 500							
Cc1cn([C@H]2C[C@H](N=[N+]=[N-])[C@@H](COC(=O)CC3(C)CC(C)(O)CO3)O2)c(=O)[nH]c1=O (stereo in doubt; form 2)								8	400	4	> 1000				> 1000		400
Cc1cn([C@H]2C[C@H](N=[N+]=[N-])[C@@H](CO)O2)c(=O)[nH]c1=O [ZIDOVUDINE]				200	> 100	> 250					> 1000	> 250	> 1000				

More lines, main results first:

EC50 ([1]; Homo sapiens, C8166) [µM]	EC50 [4] [µM]	EC50 [5] [µM]	EC50 ([7]; Homo sapiens, JM1) [µM]	IC50 [8] [µM]	EC50 [9] [µM]	EC50 ([12]; Homo sapiens, MT2) [µM]	EC50 ([1]; c8166) [µM]	EC50 ([7]; jm1) [µM]	EC50 ([12]; mt2) [µM]	Structure (SMILES)	CC50 ([2]; Homo sapiens, C8166) [µM]	CC50 [3] [µM]	CC50 ([6]; Homo sapiens, JM1) [µM]	CC50 [10] [µM]	CC50 [11] [µM]	CC50 [2] [µM]	CC50 [6] [µM]
200	200	88	200	> 100	> 250					CSCO[C@@]1(C)CO[C@@](C)(CC(=O)OC[C@H]2O[C@@H](n3cc(C)c(=O)[nH]c3=O)C[C@@H]2O)C1	1000	> 250	400				
16	> 10	> 10	16	> 100						CSCO[C@@]1(C)CO[C@@](C)(CC(=O)OC[C@H]2O[C@@H](n3cc(C)c(=O)[nH]c3=O)C[C@@H]2O[Si](C)(C)C(C)(C)C)C1	80	36	80				
16	6	3.1	200	> 100	> 250					CSCO[C@@]1(C)CO[C@](C)(CC(=O)OC[C@H]2O[C@@H](N3C=C(C)CNC3=O)C[C@@H]2O)C1		> 250	400	400			
8			40			4				CC1=CN([C@H]2C[C@H](O)[C@@H](COC(=O)C[C@@]3(C)C[C@@](C)(O)CO3)O2)C(=O)NC1	> 500		> 500		> 1000		
0.32	0.2	0.14	100	> 100	> 250					CSCOC1(C)COC(C)(CC(=O)OC[C@H]2O[C@@H](n3cc(C)c(=O)[nH]c3=O)C[C@@H]2N=[N+]=[N-])C1 (some centres undefined)		233	500	500			
